These results are taken from patent US5210097A, “Xanthocillin X monomethyl ether derivative and antitumor agent containing the same” (Meiji Seika Kaisha Ltd., priority 1989, dated 1993).

≈ marks a conversion by molar mass, not a printed value.

One data set concerns Meth-A cells. Briefly: Cytotoxicity in vitro (MTT assay, 3 days incubation). The data set is classed as cell-based, murine. The conditions noted are these: Mus musculus, 72 h, read-out: 50% inhibition concentration (IC50). The procedure:
The cytotoxic effect of each compound of the present invention in vitro was evaluated in the following manner. Dulbecco's modified MEM medium containing 10% (v/v) of fetal calf serum was used as a medium while Meth-A solid tumor was used as a tumor. The cytotoxic effect of each compound on this tumor was examined. Meth-A cells, which had been subcultured in a carbon dioxide gas incubator, were suspended in the above-mentioned medium so as to give a density of 5×10^4 cells/ml. 135 μl portions of the suspension thus obtained were poured into 96-well microtiter plates. Each test compound was dissolved in a small amount of DMF and diluted with Dulbecco's modified MEM medium to a predetermined concentration. 15 μl portions of test compound solutions at various concentrations were added thereto and then incubated in a carbon dioxide gas incubator for 3 days. After the completion of the incubation, the 50% inhibition concentration (IC50) was determined by the MTT assay method ["Igaku no Ayumi", vol. 128, 733-735 (1984)].
For orientation: Tetrazolium dyes change colour on reduction, which living cells bring about.

The test system of the next data set is Meth-A solid tumor. Nature of the data set: Inhibition of tumor growth in vivo (Meth-A solid tumor, Balb/c mouse). Also on record: species or system murine (female Balb/c mouse). The conditions noted are these: intraperitoneal, once a day for 4 days; for Tumor weight: tumor weighed two weeks after transplantation, mean ± standard deviation; for Inhibition of tumor growth: two weeks after transplantation, versus control. The procedure:
The inhibition of tumor growth by the compounds of the present invention in vivo were evaluated in the following manner. 10^6 cells of Meth-A murine tumor cells were transplanted to the dorsal subcutaneous part of a female Balb/c mouse aged 6 weeks. On the next day of the transplantation, a test compound at each concentrations was intraperitoneally administered to the animal. The compound was suspended in a 1% solution of carboxymethyl cellulose (CMC) and thoroughly mixed ultrasonically. Alternately, it was thoroughly ground in a mortar and then suspended in a CMC solution. Thus a sample for injection was prepared. The test compound was administered once a day for 4 days continuously. To a control group, a 1% solution of CMC was administered once a day for 4 days continuously. Two weeks after the transplantation, the dorsal tumor was taken out and weighed to thereby determine the inhibition of tumor growth.

A short description of data set [1]: Acute toxicity, intraperitoneal. The conditions noted are these: mouse, in vivo, ip, female Balb/c mice aged 7 weeks.
The next data set has as its system Ehrich ascites tumor. The conditions noted are these: cited from earlier work.
For data set [2], the system named is conversion of arachidonic acid into prostaglandin H2. The conditions noted are these: N. Kitahara et al., J. Antibiotics, 34, 1556-1561 (1981); cited from earlier work.

As to `[C-]#[N+]C(=Cc1ccc(OC)cc1)C(=Cc1ccc(OCc2ccc(C)cc2)cc1)[N+]#[C-]` [Compound No. 7, 1-[4'-(4"-toluyl)methyloxyphenyl]-4-(4'-methoxyphenyl)-2,3-diisocyano-1,3-butadiene], the IC50 with Meth-A cells was found to be 1.8 µg/mL (≈ 4.43 µM). Besides, in the data set with Meth-A solid tumor (30 mg/kg/day), the Tumor weight turned out to be 0.60 ± 0.20 g and the “Inhibition of tumor growth” value turned out to be 68.4%.

In the case of `[C-]#[N+]C(=Cc1ccc(OC)cc1)C(=Cc1ccc(OCc2ccccc2)cc1)[N+]#[C-]` [Compound No. 2, 1-(4'-benzyloxyphenyl)-4-(4'-methoxyphenyl)-2,3-diisocyano-1,3-butadiene], in the data set on Meth-A cells, the IC50 was found to be 0.7 µg/mL (≈ 1.78 µM). In the data set on Meth-A solid tumor (30 mg/kg/day), the Tumor weight is on record as 0.22 ± 0.04 g and the “Inhibition of tumor growth” value is on record as 67.6%.

A word on the LD50: it is the dose at which mortality reaches 50%. High values mean a less toxic substance, low ones a more toxic substance. Consider `[C-]#[N+]C(=Cc1ccc(OC)cc1)C(=Cc1ccc(OCc2ccccn2)cc1)[N+]#[C-]` [Compound No. 6, 1-[4'-(2"-pyridyl)methyloxyphenyl]-4-(4'-methoxyphenyl)-2,3-diisocyano-1,3-butadiene], for which the LD50 in data set [1] is > 120 mg/kg. In addition, the IC50 with Meth-A cells came to 0.24 µg/mL (≈ 0.61 µM).

In turn, `[C-]#[N+]C(=Cc1ccc(OC)cc1)C(=Cc1ccc(OCC(=O)OCC)cc1)[N+]#[C-]` [Compound No. 1] gave a median lethal dose (LD50) in data set [1] of 120 mg/kg. Further, in the data set on Meth-A cells, the IC50 worked out at 0.64 µg/mL (≈ 1.65 µM). In the data set on Meth-A solid tumor (10 mg/kg/day), the Tumor weight is on record as 0.39 ± 0.08 g and the “Inhibition of tumor growth” value amounted to 67.5%.

For `[C-]#[N+]C(=Cc1ccc(OC)cc1)C(=Cc1ccc(OCCCCCC)cc1)[N+]#[C-]` [Compound No. 4, 1-(4'-n-hexyloxyphenyl)-4-(4'-methoxyphenyl)-2,3-diisocyano-1,3-butadiene], in the data set on Meth-A solid tumor (30 mg/kg/day), the Tumor weight is 0.27 ± 0.20 g and the “Inhibition of tumor growth” value is on record as 71.9%.

With `[C-]#[N+]C(=Cc1ccc(OC)cc1)C(=Cc1ccc(OCCF)cc1)[N+]#[C-]` [Compound No. 3, 1-[4'-(2"-fluoroethyl)oxyphenyl]-4-(4'-methoxyphenyl)-2,3-diisocyano-1,3-butadiene], the LD50 in data set [1] is > 120 mg/kg. In addition, in the data set with Meth-A cells, the IC50 is 1.5 µg/mL (≈ 4.31 µM).

Take `[C-]#[N+]C(=Cc1ccc(O)cc1)C(=Cc1ccc(OC)cc1)[N+]#[C-]` [xanthocillin X monomethyl ether, 1-(4'-hydroxyphenyl)-2,3-diisocyano-4-(4'-methoxyphenyl)-1,3-butadiene]: in the data set with Ehrich ascites tumor (during administration), the “proliferation of Ehrich ascites tumor” value was “would suppress the proliferation of Ehrich ascites tumor”. The “proliferation of cancer cells after stopping the administration” value with Ehrich ascites tumor (immediately after stopping the administration) was “the cancer cells would proliferate again immediately after stopping the administration of this compound”. In addition, the “inhibition of biosynthesis of prostaglandin or thromboxane” value in data set [2] is recorded as “would inhibit the biosynthesis of prostaglandin or thromboxane”.

For `[C-]#[N+]C(=Cc1ccc(OC)cc1)C(=Cc1ccc(OCc2ccc(Cl)cc2)cc1)[N+]#[C-]` [Compound No. 9, 1-[4'-(4"-chlorophenyl)methyloxyphenyl]-4-(4'-methoxy-phenyl)-2,3-diisocyano-1,3-butadiene], in data set [1], the median lethal dose (LD50) is > 300 mg/kg. In addition, the IC50 with Meth-A cells stood at 1.8 µg/mL (≈ 4.22 µM). Besides, in the data set with Meth-A solid tumor (30 mg/kg/day), the Tumor weight is reported as 0.60 ± 0.50 g and the “Inhibition of tumor growth” value came out at 68.4%.

`[C-]#[N+]C(=Cc1ccc(OC)cc1)C(=Cc1ccc(OCc2ccncc2)cc1)[N+]#[C-]` [Compound No. 5, 1-[4'-(4"-pyridyl)methyloxyphenyl]-4-(4'-methoxyphenyl)-2,3-diisocyano-1,3-butadiene]: the IC50 in the data set with Meth-A cells stood at 0.7 µg/mL (≈ 1.78 µM).

With `[C-]#[N+]C(=Cc1ccc(OC)cc1)C(=Cc1ccc(OC(=O)c2ccccc2)cc1)[N+]#[C-]` [Compound No. 8, 1-(4'-benzoyloxyphenyl)-4-(4'-methoxyphenyl)-2,3-diisocyano-1,3-butadiene], the median lethal dose (LD50) in data set [1] was > 300 mg/kg. In the data set with Meth-A cells, the IC50 turned out to be 1.7 µg/mL (≈ 4.18 µM). Further, in the data set with Meth-A solid tumor (30 mg/kg/day), the Tumor weight is 1.40 ± 0.30 g and the “Inhibition of tumor growth” value is 26.3%.
